Assay results as given in PubChem BioAssay AID1963958 (Molecular Pharmacology Branch, DTP, NCI, 2024).
pIC50: −log10 of the molar value.

Test system: MDA-MB-231 multicell spheroids, viability
Assay: Anticancer human tumor MDA-MB-231 cell line growth inhibition [PI3K];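 note: spheroids exposed to agents for seven days before reading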;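 for viability, T/C: percent of vehicle control luminescence with DMSO treated spheroids as 100%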
Conditions: for pIC50: curve of first compound; for viability, T/C: stronger effect = lower value; active = viability on the fitted dose curve at most 10% of control; inactive = the rest
Excerpt: Combinatorial screen of targeted agents with the PI3K inhibitors inavolisib, alpelisib, duvelisib, and copanlisib in multi-cell type tumor spheroids
A high-throughput screen of multi-cell type tumor spheroids was designed to identify active combinations of targeted small molecules and PI3K pathway inhibitors. Complex spheroids include a stromal component modeled by human endothelial cells (HUVEC) and fibroblasts modeled by human mesenchymal stem cells (MSCs). The concentration ranges selected for each drug and investigational agent were based upon clinically achievable concentrations if the clinical Cmax of the agent was known.
Compounds. The drugs and investigational agents: inavolisib (NSC800729), alpelisib (NSC765974), duvelisib (NSC772469), copanlisib (NSC816437), ipatasertib (NSC767898), afuresertib (NSC778305), talazoparib (NSC767125), sapanisertib (NSC764658), selumetinib (NSC741078), tovorafenib (DAY101, NSC766906), vemurafenib (NSC761431), ravoxertinib (NSC781343), sotorasib (NSC818433), MRTX1133 (NSC 836407), abemaciclib (NSC 768073), palbociclib (NSC758247), venetoclax (NSC 766270), SY5609 (NSC837396), enzalutamide (NSC755605), and darolutamide (NSC825331), were obtained from the National Cancer Institute (NCI) Developmental Therapeutics Program Chemical Repository. The FDA-approved anticancer drug set is available from the NCI Developmental Therapeutics Program. […] The stock solutions were prepared in dimethyl sulfoxide (DMSO, Sigma-Aldrich, St. Louis, MO, cat. D2650) at 800-fold the tested concentration and stored at -70 degrees C prior to their use. All drugs and investigational agents were tested over a range starting from a high concentration at or near the clinical Cmax and decreasing in half-log increments. If the clinical Cmax for an agent had not been determined, the highest concentration tested was 10 microM.
Cell Culture. All cells were maintained in an incubator at 37 degrees C and 5% CO2 with 95% humidity. The PDC lines were cultured according to standard operating procedures established by the NCI PDMR (https://pdmr.cancer.gov/sops/default.htm). All PDCs were thawed and cultured in Matrigel-coated flasks prepared with a working solution of 1X Ham's F-12 nutrient mix, without supplementation (Invitrogen, Waltham, MA, cat. 11765054), 100 U/mL penicillin-streptomycin (Invitrogen, cat. 15140122), and 2.5% Matrigel (Corning Inc., Corning, NY, cat. 354248) for the first three passages. The 354836-022-R-J1-PDC, 475296-252-R-J1-PDC, and 997726-040-R-J2-PDC lines were cultured in 6A media, which includes advanced DMEM/F-12 (Thermo Fisher Scientific, cat. 12634028), 10 mM HEPES (Thermo Fisher Scientific, cat. 15630080), 1X GlutaMAX supplement (Thermo Fisher Scientific, cat. 35050061), 0.1 mg/mL primocin (InvivoGen, San Diego, CA, cat. ant-pm-2), 10% defined fetal bovine serum, heat inactivated (HyClone Laboratories Inc., Logan, UT, cat. SH30070.03HI), 50% L-WRN conditioned media (ATCC, cat. CRL-3276), 1.25 mM N-Acetyl-L-cysteine (Sigma-Aldrich, cat. A9165), 10 mM nicotinamide (Sigma-Aldrich, cat. N0636), 1X B-27 supplement (Thermo Fisher Scientific, cat. 17504044), 1X N-2 supplement (Thermo Fisher Scientific, cat. 17502048), and 10 microM Y-27632 dihydrochloride (Tocris Bioscience, Bristol, United Kingdom, cat. 1254). The 624824-186-R-J2-PDC line was cultured in 6C/Colon 1B media, which includes all 6A media components plus 50 ng/mL human EGF recombinant protein (Thermo Fisher Scientific, cat. PHG0311). […]

[1] = second compound 0.00316 µM, first compound 0.0316 µM
[2] = second compound 0.00316 µM, first compound 0.1 µM
[3] = second compound 0.01 µM, first compound 0.0316 µM
[4] = second compound 0.01 µM, first compound 0.1 µM
[5] = second compound 0.0316 µM, first compound 0.0316 µM
[6] = second compound 0.0316 µM, first compound 0.1 µM
[7] = second compound 0.1 µM, first compound 0.0316 µM
[8] = second compound 0.1 µM, first compound 0.1 µM
[9] = second compound 0.316 µM, first compound 0.0316 µM
[10] = second compound 0.316 µM, first compound 0.1 µM
[11] = second compound 1 µM, first compound 0.0316 µM
[12] = second compound 1 µM, first compound 0.1 µM

CC(=O)c1c(C)c2cnc(Nc3ccc(N4CCNCC4)cn3)nc2n(C2CCCC2)c1=O + CC(Nc1ccc2c(c1)OCCn1cc(N3C(=O)OCC3C(F)F)nc1-2)C(N)=O
8.00: pIC50 (second compound 0.316 µM)
7.22: pIC50 (second compound 0.01 µM)
7.13: pIC50 (second compound 0.00316 µM)
8.34: pIC50 (second compound 1 µM)
inactive: viability, T/C (second compound 0.00316 µM, first compound 0.000316 µM) 108% | viability, T/C (second compound 0.00316 µM, first compound 0.001 µM) 91.5% | viability, T/C (second compound 0.00316 µM, first compound 0.00316 µM) 98.1% | viability, T/C (second compound 0.00316 µM, first compound 0.01 µM) 90.2% | viability, T/C [1] 67.4% | viability, T/C [2] 43.5% | viability, T/C (second compound 0.01 µM, first compound 0.000316 µM) 94.1% | viability, T/C (second compound 0.01 µM, first compound 0.001 µM) 92.6% | viability, T/C (second compound 0.01 µM, first compound 0.00316 µM) 95.7% | viability, T/C (second compound 0.01 µM, first compound 0.01 µM) 72.1% | viability, T/C [3] 67% | viability, T/C [4] 38.7% | viability, T/C (second compound 0.0316 µM, first compound 0.000316 µM) 80.1% | viability, T/C (second compound 0.0316 µM, first compound 0.001 µM) 75.7% | viability, T/C (second compound 0.0316 µM, first compound 0.00316 µM) 79.9% | viability, T/C (second compound 0.0316 µM, first compound 0.01 µM) 69% | viability, T/C [5] 51.8% | viability, T/C [6] 31.6% | viability, T/C (second compound 0.1 µM, first compound 0.000316 µM) 71.3% | viability, T/C (second compound 0.1 µM, first compound 0.001 µM) 65.7% | viability, T/C (second compound 0.1 µM, first compound 0.00316 µM) 65.1% | viability, T/C (second compound 0.1 µM, first compound 0.01 µM) 55.2% | viability, T/C [7] 41.3% | viability, T/C [8] 27.9% | viability, T/C (second compound 0.316 µM, first compound 0.000316 µM) 65.8% | viability, T/C (second compound 0.316 µM, first compound 0.001 µM) 64% | viability, T/C (second compound 0.316 µM, first compound 0.00316 µM) 61.3% | viability, T/C (second compound 0.316 µM, first compound 0.01 µM) 48.2% | viability, T/C [9] 37.9% | viability, T/C [10] 24.3% | viability, T/C (second compound 1 µM, first compound 0.000316 µM) 60.9% | viability, T/C (second compound 1 µM, first compound 0.001 µM) 55.1% | viability, T/C (second compound 1 µM, first compound 0.00316 µM) 51.9% | viability, T/C (second compound 1 µM, first compound 0.01 µM) 46.2% | viability, T/C [11] 35.9% | viability, T/C [12] 23.4%
7.81: pIC50 (second compound 0.1 µM)
7.46: pIC50 (second compound 0.0316 µM)

CNC(=O)c1ccc(N2C(=S)N(c3ccc(C#N)c(C(F)(F)F)c3)C(=O)C2(C)C)cc1F + CC(Nc1ccc2c(c1)OCCn1cc(N3C(=O)OCC3C(F)F)nc1-2)C(N)=O
< 5.00: pIC50 (second compound 0.00316 µM) | pIC50 (second compound 0.01 µM) | pIC50 (second compound 0.0316 µM) | pIC50 (second compound 0.1 µM) | pIC50 (second compound 0.316 µM) | pIC50 (second compound 1 µM)
inactive: viability, T/C [1] 104% | viability, T/C [2] 97.8% | viability, T/C (second compound 0.00316 µM, first compound 0.316 µM) 103% | viability, T/C (second compound 0.00316 µM, first compound 1 µM) 98% | viability, T/C (second compound 0.00316 µM, first compound 3.16 µM) 103% | viability, T/C (second compound 0.00316 µM, first compound 10 µM) 76.6% | viability, T/C [3] 87.4% | viability, T/C [4] 98% | viability, T/C (second compound 0.01 µM, first compound 0.316 µM) 86.6% | viability, T/C (second compound 0.01 µM, first compound 1 µM) 96% | viability, T/C (second compound 0.01 µM, first compound 3.16 µM) 79.5% | viability, T/C (second compound 0.01 µM, first compound 10 µM) 73% | viability, T/C [5] 75.6% | viability, T/C [6] 82.5% | viability, T/C (second compound 0.0316 µM, first compound 0.316 µM) 75% | viability, T/C (second compound 0.0316 µM, first compound 1 µM) 77.5% | viability, T/C (second compound 0.0316 µM, first compound 3.16 µM) 77.2% | viability, T/C (second compound 0.0316 µM, first compound 10 µM) 60.8% | viability, T/C [7] 72.8% | viability, T/C [8] 71.8% | viability, T/C (second compound 0.1 µM, first compound 0.316 µM) 70.7% | viability, T/C (second compound 0.1 µM, first compound 1 µM) 67.2% | viability, T/C (second compound 0.1 µM, first compound 3.16 µM) 64% | viability, T/C (second compound 0.1 µM, first compound 10 µM) 52.5% | viability, T/C [9] 65.1% | viability, T/C [10] 66.2% | viability, T/C (second compound 0.316 µM, first compound 0.316 µM) 62.2% | viability, T/C (second compound 0.316 µM, first compound 1 µM) 66.7% | viability, T/C (second compound 0.316 µM, first compound 3.16 µM) 64.7% | viability, T/C (second compound 0.316 µM, first compound 10 µM) 52.2% | viability, T/C [11] 55.7% | viability, T/C [12] 62.4% | viability, T/C (second compound 1 µM, first compound 0.316 µM) 62.3% | viability, T/C (second compound 1 µM, first compound 1 µM) 60.4% | viability, T/C (second compound 1 µM, first compound 3.16 µM) 58.5% | viability, T/C (second compound 1 µM, first compound 10 µM) 47.4%
